Experimental data published in PMC8765275, “Self-Inhibitory Peptides Targeting the Neisseria gonorrhoeae MtrCDE Efflux Pump Increase Antibiotic Susceptibility” (Antimicrobial Agents and Chemotherapy, 2022).
Where two headings read alike, the source gives them in different places.

How the values were obtained:
[1] = system: N. gonorrhoeae strain WHO K (MtrCDE overexpression); test: microbe, parasite or virus in culture; assay type: cell-based, Neisseria gonorrhoeae; details: for MIC: Neisseria gonorrhoeae, 20 h
Method: (§1) Six peptides were tested against N. gonorrhoeae strains with various antimicrobial resistance phenotypes and with either standard MtrCDE expression (strain FA1090) or MtrCDE overexpression (strains WHO K, WHO P, and WHO X [15, 16]) (Table 2). […] Subsequent experiments were conducted with subinhibitory peptide concentrations (20 μg/ml for FA1090; 50 μg/ml for WHO K, WHO P, and WHO X).
(§2) Experiments were performed using a microdilution method in triplicate wells.
[…] For cotreatment assays (peptide plus antibiotic), the antibiotic dilutions were made up in GC broth that contained the peptide at the appropriate concentration. The experiments were performed with peptide-only and antibiotic-only controls. Each well was inoculated with 10 μl of the appropriate N. gonorrhoeae strain at an optical density (absorbance at 600 nm) of 0.1 (∼1 × 10^6 CFU/ml). All experiments were performed with triplicate samples on at least three occasions.

[2] = system: N. gonorrhoeae strain FA1090 (standard MtrCDE expression); test: MIC, broth microdilution (CLSI), antibiotic alone, peptide alone or peptide cotreatment; assay type: cell-based; details: Neisseria gonorrhoeae
Method: as §1, §2
(§3) High-level resistance, resistance, intermediate resistance, and susceptibility phenotypes were determined per previously determined MIC values ([15]) using the interpretive criteria published by the Swedish Reference Group on Antibiotics (SGRA) ([25]). For cotreatment assays (peptide plus antibiotic), the antibiotic dilutions were made up in GC broth that contained the peptide at the appropriate concentration. The experiments were performed with peptide-only and antibiotic-only controls. Each well was inoculated with 10 μl of the appropriate N. gonorrhoeae strain at an optical density (absorbance at 600 nm) of 0.1 (∼1 × 10^6 CFU/ml). All experiments were performed with triplicate samples on at least three occasions.

[3] = system: N. gonorrhoeae strain WHO X (MtrCDE overexpression); test: microbe, parasite or virus in culture; assay type: cell-based, Neisseria gonorrhoeae; details: for MIC: Neisseria gonorrhoeae, 20 h
Method: as §1, §2, §3

[4] = system: N. gonorrhoeae strain WHO P (MtrCDE overexpression); test: microbe, parasite or virus in culture; assay type: cell-based, Neisseria gonorrhoeae; details: for MIC: Neisseria gonorrhoeae, 20 h; for Reduction of azithromycin MIC compared with that for MtrCDE knockout versus wild-type strains: 50 μg/ml peptide, knockout comparison from ref 6; for Antimicrobial resistance phenotype, AZM, in the presence of peptide: cotreatment with 50 μg/ml peptide, EUCAST breakpoints
Method: as §1, §2, §3

[5] = system: N. gonorrhoeae strains FA1090, WHO K, WHO P, WHO X; test: Antibiotic MIC with peptide cotreatment, summarised over the strains tested; assay type: cell-based, Neisseria gonorrhoeae; details: for Reduction of the MICs of the four antibiotics tested on cotreatment: for at least one N. gonorrhoeae strain
Method: as §1, §2, §3

[6] = system: N. gonorrhoeae strain WHO P ΔmtrE; test: Antibiotic MIC with or without P-MtrE1, mtrE knockout strain; assay type: cell-based, Neisseria gonorrhoeae
Method: (§4) N. gonorrhoeae strains used in this study include FA1090 (standard MtrCDE expression) ([22]), WHO K (MtrCDE overexpression) ([15]), WHO P (MtrCDE overexpression) ([15]), and WHO X (MtrCDE overexpression) ([16]). Wild-type strains were grown on GC agar or in GC broth (Oxoid) supplemented with IsoVitaleX (Bacto) at 37°C in 5% CO2. mtrE knockout strains of N. gonorrhoeae WHO X and WHO P (ΔmtrE) were generated by transforming bacteria with 1 μg of a linear DNA fragment (IDT) containing aminoglycoside 3′-phosphotransferase gene (NCBI accession no. VTT49712.1) flanked by 500-bp terminal fragments of the N. gonorrhoeae FA1090 mtrE gene (GenBank accession no. AE004969.1, positions 1 to 500 and 903 to 1403), as well as the gonococcal DNA uptake sequence ([…]) at the 5′ end ([23]). E. coli strain DH5α, used for cloning, was grown using Luria-Bertani agar or broth (Oxoid) at 37°C. The media were supplemented with 100 μg/ml ampicillin or 50 μg/ml kanamycin, as required.
as §2, §3

[7] = system: N. gonorrhoeae strain WHO X ΔmtrE; test: as above; assay type: cell-based, Neisseria gonorrhoeae
Method: as §4, §2, §3

[8] = read-out: MIC of CRO (ceftriaxone)
[9] = WHO K, antibiotic alone, EUCAST breakpoints
[10] = gentamicin is not subject to efflux by MtrCDE
[11] = presence or absence of subinhibitory P-MtrE1 concentrations (0 or 6.5 μg/ml, Fig. 2)
[12] = read-out: MIC of AZM (azithromycin)
[13] = read-out: MIC of ERY (erythromycin)

Molecule: CO/N=C(\C(=O)N[C@@H]1C(=O)N2C(C(=O)O)=C(CSc3nc(=O)c(=O)[nH]n3C)CS[C@H]12)c1csc(N)n1 [CRO, ceftriaxone]
- MIC [1, 8]: 0.031 µg/mL
- Antimicrobial resistance phenotype, CRO [1, 9]: S (S ≤ 0.125)
- MIC ([2]; read-out: MIC of CRO (ceftriaxone), antibiotic alone, microdilution per CLSI, GC broth, 20 h, triplicate wells): < 0.0078 µg/mL
- MIC [3, 8]: 2 µg/mL
- MIC [4, 8]: 0.004 µg/mL

Molecule: (KFF)3KGSG HLSLIATV [P-MtrE1, self-derived peptide, 8 amino acids of MtrE fused to (KFF)3K cell-permeating peptide and GSG linker]
- Reduction of the MICs of the four antibiotics tested on cotreatment [5]: at least 2 fold
- Impact of peptide on susceptibility to gentamicin [6, 10]: no impact
- Change in antibiotic susceptibility to erythromycin or azithromycin with peptide [6, 11]: no change
- Impact of peptide on susceptibility to gentamicin [7, 10]: no impact
- Change in antibiotic susceptibility to ciprofloxacin or ceftriaxone with peptide [7, 11]: no change
- Impact of peptide on susceptibility to gentamicin ([3]; WHO X wild-type, gentamicin is not subject to efflux by MtrCDE): no impact
- Reduction of ciprofloxacin and ceftriaxone MICs compared with that between MtrCDE knockout and wild-type strains ([3]; WHO X, 50 μg/ml peptide, knockout comparison from ref 6): same magnitude
- Peptide concentration able to reduce the MICs of ciprofloxacin and ceftriaxone ([3]; WHO X, concentrations as low as): ≤ 6.25 µg/mL
- Impact of peptide on susceptibility to gentamicin ([4]; WHO P wild-type, gentamicin is not subject to efflux by MtrCDE): no impact
- Reduction of azithromycin MIC compared with that for MtrCDE knockout versus wild-type strains ([4]; WHO P): same magnitude
- Peptide concentration able to reduce the MICs of erythromycin and azithromycin ([4]; WHO P, concentrations as low as): ≤ 6.25 µg/mL
- Antimicrobial resistance phenotype, AZM, in the presence of peptide ([4]; WHO P): S (S ≤ 0.25)

Molecule: (KFF)3KGSGVFLVPLFY [P-MtrD1, self-derived peptide, 8 amino acids of MtrD fused to (KFF)3K cell-permeating peptide and GSG linker]
- Reduction of the MICs of the four antibiotics tested on cotreatment [5]: at least 2 fold

Molecule: (KFF)3KGSGDAAHLSLIATVAKAYFNERY [P-MtrE2, self-derived peptide, 20 amino acids of MtrE fused to (KFF)3K cell-permeating peptide and GSG linker]
- Reduction of the MICs of the four antibiotics tested on cotreatment [5]: at least 2 fold

Molecule: HLSLIATV [P-MtrE1a]
- Effect of peptide on susceptibility to the antibiotics tested ([5]; control peptides, any strain against which P-MtrE1 had an effect): not able to increase susceptibility to any antibiotic

Molecule: CC[C@H]1OC(=O)[C@H](C)[C@@H](O[C@H]2C[C@@](C)(OC)[C@@H](O)[C@H](C)O2)[C@H](C)[C@@H](O[C@@H]2O[C@H](C)C[C@H](N(C)C)[C@H]2O)[C@](C)(O)C[C@@H](C)CN(C)[C@H](C)[C@@H](O)[C@]1(C)O [AZM, azithromycin]
- MIC [1, 12]: 0.25 µg/mL
- Antimicrobial resistance phenotype, AZM [1, 9]: S (S ≤ 0.25)
- MIC ([2]; read-out: MIC of AZM (azithromycin), antibiotic alone, microdilution per CLSI, GC broth, 20 h, triplicate wells): 0.063 µg/mL
- MIC [3, 12]: 0.5 µg/mL
- MIC [4, 12]: 4 µg/mL

Molecule: CC[C@H]1OC(=O)[C@H](C)[C@@H](O[C@H]2C[C@@](C)(OC)[C@@H](O)[C@H](C)O2)[C@H](C)[C@@H](O[C@@H]2O[C@H](C)C[C@H](N(C)C)[C@H]2O)[C@](C)(O)C[C@@H](C)C(=O)[C@H](C)[C@@H](O)[C@]1(C)O [ERY, erythromycin, reference compound]
- MIC ([2]; antibiotic alone, microdilution per CLSI, GC broth, 20 h, triplicate wells, read-out: MIC of ERY (erythromycin)): 0.2 µg/mL
- MIC [3, 13]: 2 µg/mL
- MIC [4, 13]: 16 µg/mL

Molecule: (KFF)3KGSGVMKLRRQI [P-MtrC1, self-derived peptide, 8 amino acids of MtrC fused to (KFF)3K cell-permeating peptide and GSG linker]
- Reduction of the MICs of the four antibiotics tested on cotreatment [5]: at least 2 fold
- Reduction of azithromycin MIC compared with that for MtrCDE knockout versus wild-type strains ([4]; WHO P): same magnitude
- Antimicrobial resistance phenotype, AZM, in the presence of peptide ([4]; WHO P): I
